According to EP0974360A2, “Pharmaceutical preparations for use in combatting or preventing surface infections caused by microorganisms” (N.V. Nutricia, priority 1998, dated 2000):

How the values were obtained:
C. glabrata Y110 [1] = assay: MIC and growth inhibition at several pH's in SLM or RPMI medium; assay type: cell-based; settings: figures 5 and 6
C. glabrata Y110 [2] = assay: Synergy experiments (8 by 8 dilution matrix, growth by UV turbidity at 630 nm); assay type: cell-based; settings: for UV (Candida growth, 630 nm): 24 hours

Row | decline of effective concentration as compared to its MIC value (C. glabrata Y110 [2]; 0.0008 µg/ml 5-fluorocytosine with 0.02 mg/ml lactoferrin) | SMILES | effect of an increase in pH of the medium on inhibition (C. glabrata Y110 [1]) | UV (Candida growth, 630 nm) (C. glabrata Y110 [2]; Fluconazole 0.2 mg/ml alone) | UV (Candida growth, 630 nm) (C. glabrata Y110 [2]; Fluconazole 0.33 mg/ml alone) | UV (Candida growth, 630 nm) (C. glabrata Y110 [2]; Fluconazole 0.5 mg/ml alone)
1 | – | OC(Cn1cncn1)(Cn1cncn1)c1ccc(F)cc1F [Fluconazole, fluconazole] | more efficient inhibition | 0.003 | 0.003 | 0.004
2 | 30 times | Nc1nc(=O)[nH]cc1F [5-Fluorocytosine, 5-fluorocytosine] | – | – | – | –
